In assay [1] the target is T1, pS129-positive αSyn inclusions (Mus musculus, UniProt O55042).
T1 construct: from tissue; host or cells: brain of αSyn PFF-injected C57BL/6J mice
Nature of the assay: Immunofluorescence staining and colocalization, αSyn PFF-injected mouse brain. The following applies: for M1, fraction of A overlapping B / M2, fraction of B overlapping A: Manders' coefficient, αSyn PFF injected mouse, antibody (A) pS129, ligand (B); for Colocalization of ligand with pS129 signal: αSyn-PFF-injected mice, 12 weeks after injection, PPN, periaqueductal gray, SNc, nucleus accumbens.

The target of assay [2] is T2, recombinant αSyn fibrils (Homo sapiens, UniProt P37840).
T2 construct: made in house; host or cells: E. coli
Nature of the assay: Fluorescence assay of ligands with αSYN fibrils. Type of assay: binding. The following applies: ligand bound to αSYN fibrils; emission peaks. The text has this: (§1) Recombinant Aβ42, K18-tau, full-length 2N4R tau (441 aa) and αSyn were expressed and measured for binding with fluorescent ligands as described previously (details in the supplementary material).
(§2) Recombinant Aβ42, K18 tau, full-length 2N4R tau (441 aa) and αSyn were expressed and produced by E. coli as described previously. As a substrate for HRP, Pierce ECL and Western blotting substrate (Thermo Fisher Scientific, U.S.A.) were used to detect Aβ42 and αSyn. To detect K18 tau, ECL Prime Western blotting detection reagents (Cytiva, U.S.A.) were used. Images of the resulting blots were taken with an ImageQuant LAS 4000 (GE Healthcare). […] For Aβ42, the quantity was 3.7 μg because of a higher dilution. […] K18 tau was detected using a monoclonal tau antibody (anti-tau 4-repeat isoform RD4, clone 1E1/A6). Aβ42 was detected with a monoclonal Aβ antibody (clone BAM-10), and αSyn was detected using a monoclonal αSyn antibody (clone Syn211). […] After incubation of the protein solutions, fibrillization was verified by thioflavin T fluorescence assay: 45 μL of thioflavin T (5 μM, Sigma Aldrich, U.S.A.) was mixed with either 2 μL of the incubated αSyn, 5 μL of K18 tau, full-length 2N4R tau or 5 μL of Aβ42 in a 45 µL quartz cuvette (quartz […] Ultra-Micro Cell, Hellma GmbH, Germany).

The target of assay [3] is T3, recombinant Aβ42 fibrils (Homo sapiens, UniProt P05067).
T3 construct: Recombinant Aβ42, K18-tau, full-length 2N4R tau (441 aa) and αSyn were expressed; made in house; host or cells: E. coli
The experiment in a line: Fluorescence assay of ligands with Aβ42 fibrils. Type of assay: binding. The following applies: ligand bound to Aβ42 fibrils; emission peaks.
Source text: as §1, §2

In assay [4] the target is T2, recombinant αSyn fibrils. The experiment in a line: SPR binding kinetics on immobilized αSyn fibrils. To be noted: surface CMD200M, surface density 2940-3400 RU, sum2exp model, two components (lines) per analyte; for kon: read-out: ka, rate constant of association. (Surface plasmon resonance follows binding to a sensor surface in real time, without labels.)
Procedure: SPR measurements were conducted in HEPES-buffered saline (HBS, Teknova, USA) buffer at 20 °C using Biacore instruments T200 and S200 (Cytiva, Uppsala, Sweden). Aβ42, tau, and αSyn recombinant fibrils were immobilized in the flow cell of sensor chips produced by Xantec (Düsseldorf, Germany) and Cytiva by coupling fibril amine groups to sulfo-N-hydroxysuccinimide (sulfo-NHS)-activated carboxylic acid groups on the chip surface. Since no nonbinding fibril(s) were available, the reference flow cell remained empty. Different chip surfaces, including the carboxymethylated dextran surface CM5 (Cytiva, Sweden), the carboxymethyldextran hydrogel surface CMD200M, the linear polycarboxylate hydrogel surface HC30M and HC1500M, the linear polycarboxylate hydrogel (reduced charge) surface HLC30M, and the zwitterionic hydrogel surface ZC150D (all from Xantec, Germany), were tested to obtain a high immobilization density and low nonspecific adsorption of ligands. All steps for surface preparation and immobilization were conducted at a flow rate of 5 µL/min. The surface carboxylic acid groups were activated with 0.2 M sulfo-NHS and 0.1 M 1-ethyl-3-(3-dimethylaminopropyl)carbodiimide (EDC, Xantec) (CM5 and CMD200M: 0.05 M) in 5 mM 2-(N-morpholino)ethanesulfonic acid (MES buffer, abcr Swiss AG, Switzerland) at pH 5.0 for 550 s (CM5 and CMD200M: 180 s) using 5 mM MES (pH 6.5) as the running buffer. K18-tau and αSyn fibrils were diluted to 2.5–10 µM in 5 mM acetate buffer (Fisher Scientific, Switzerland) at pH 4.5 and coupled for 750 s at a flow rate of 5 µL/minute on all surfaces except for ZD150D. Surfaces were blocked with 1 M ethanolamine (Xantec, Germany) for 500 s. On the ZC150D chip, K18-tau, αSyn and Aβ42 were immobilized at 2.5–10 µM in 5 mM MES, pH 6.5, for 750 s to a surface activated with 0.5 M EDC and 0.1 M sulfo-NHS for 600 s in 5 mM MES, pH 6.5. Finally, the surface was blocked with 1 M glycine in 10 mM MES, pH 6.5.
In assay [5] the target is recombinant K18 tau fibrils (Homo sapiens, UniProt P10636). Nature of the assay: Fluorescence assay of ligands with K18 tau fibrils. Type of assay: binding. The arrangement: made in house; host or cells: E. coli. The following applies: ligand bound to K18 tau fibrils; emission peaks.
Source text: as §1, §2

Assay [6] addresses T4, pS129-positive αSyn inclusions (Homo sapiens, UniProt P37840).
T4 construct: tissue Netherlands Brain Bank; host or cells: postmortem PD brain, medulla oblongata
The experiment in a line: Immunofluorescence staining and colocalization, PD patient brain slices. The following applies: for M1, fraction of A overlapping B / M2, fraction of B overlapping A: Manders' coefficient, sample PD, antibody (A) pS129, ligand (B); for Ligand detection of αSyn inclusions: medulla oblongata tissue slices from two PD patients, costained with pS129 antibody. From the text:
Two PD patients, each with a clinical diagnosis confirmed by pathological examination of Lewy bodies (Braak LB 6, without tau and Aβ), were included in this study (detailed information in Table 1). Paraffin-embedded autopsied brain tissues from the medulla oblongata and cerebellum with high αSyn inclusion accumulation were obtained from the Netherlands Brain Bank (NBB), Netherlands (Table 2).
The details on the antibodies and ligand concentrations are described in STable 1. 2. Human paraffin-embedded brain sections (3 µm) were deparaffinized and rehydrated prior to antigen retrieval step (citrate buffer pH 6.0) in a microwave for 20 min at 98 °C. The sections were then costained with anti-αSyn (phospho-S129, pS129) antibody plus fluorescent secondary antibody. Ligands were incubated after secondary antibody incubation for 30 min. Sections were counterstained using 4’,6-diamidino-2-phenylindole (DAPI). Mouse brains were embedded in tissue freezing media (OCT Compound, Tissue Tek, USA) and cut into 30–40 μm thick consecutive coronal sections using a cryostat microtome (CM3050 S, Leica, Germany). All sections spanning the complete rostrocaudal extent of the brain were kept in the correct order and stored at 4 °C in cryoprotect solution (1:1:3 volume ratio of ethylenglycol, glycerol and 0.1 M PBS) until further processing. Anti-αSyn pS129 antibodies, anti-phospho-tau antibodies (AT-8, AT-100), or anti-Aβ1-16 antibody 6E10 plus fluorescent secondary antibody were used as previously described on brain slices from αSyn PFF-injected mice, arcAβ mice, and pR5 mice. Ligands were incubated with secondary antibody for 30 min. Sections were counterstained with DAPI. The brain sections were imaged at 20 × magnification using an Axio Observer Z1 microscope (whole brain slide scanner) and at 63 × magnification using a Leica SP8 confocal microscope (Leica, Germany) for colocalization. It took approximately 1–1.5 h to acquire the tilted human brain slices by a slide scanner in our experiment (20 ×). The time varied depending on the size of the sample. Lambda scans were performed using a Leica SP8 confocal microscope for the emission spectrum of the ligands on the staining as previously described to validate the signal. The images were analyzed using Qupath and Fiji (NIH, U.S.A.). Colocalization analysis of the confocal microscopy images (probe and antibody channels) was performed by using Fiji, and Manders' coefficients (M1, M2) were computed.

In assay [7] the target is T5, tau inclusions (AT-8/AT-100 positive) (Homo sapiens, UniProt P10636, P618L).
T5 construct: from tissue; host or cells: brain (cortex, hippocampus) of pR5 transgenic mice
Nature of the assay: Immunofluorescence staining and colocalization, pR5 mouse brain. The following applies: for M1, fraction of A overlapping B / M2, fraction of B overlapping A: Manders' coefficient, pR5 mouse.

For assay [8], the target named is T6, recombinant full-length 2N4R tau fibrils (Homo sapiens, UniProt P10636).
T6 construct: full-length 2N4R tau (441 aa); made in house; host or cells: E. coli
Nature of the assay: SPR binding kinetics on immobilized full-length 2N4R tau fibrils. To be noted: surface ZC150D, surface density 2900 RU, sum2exp model, two components per analyte. How it is done:
[The source words this procedure for another variant and reports this variant under the same test.] (§3) SPR measurements were conducted in HEPES-buffered saline (HBS, Teknova, USA) buffer at 20 °C using Biacore instruments T200 and S200 (Cytiva, Uppsala, Sweden). Aβ42, tau, and αSyn recombinant fibrils were immobilized in the flow cell of sensor chips produced by Xantec (Düsseldorf, Germany) and Cytiva by coupling fibril amine groups to sulfo-N-hydroxysuccinimide (sulfo-NHS)-activated carboxylic acid groups on the chip surface. Since no nonbinding fibril(s) were available, the reference flow cell remained empty. […]
(§4) The immobilized fibrils were stable for a few days. Kinetic constants for binding were determined by injection of a dilution series of 5–8 concentrations of ligand in HBS buffer at a flow rate of 30 µL/minute in duplicate ("full kinetics").
(§5) The data was evaluated using BiaEvaluate v2.03 software (Cytiva, Sweden). Binding kinetics were analyzed globally using different kinetic models, including 1 + 1, a sum of two exponentials model ("heterogeneous ligand" in terms of BiaEvaluate, sum2exp), and a sum of three exponentials model (sum3exp) that was created using the script editor of the software.

Assay [9] has as its target T3, recombinant Aβ42 fibrils. The experiment in a line: SPR binding kinetics on immobilized Aβ42 fibrils. The following applies: surface ZC150D, surface density 1770 RU, sum2exp model, two components per analyte. How it is done: as §3, §4, §5
Assay [10] deals with T3, recombinant Aβ42 fibrils. The arrangement: method as in PMID 27767229. The following applies: read-out: EC50, competition with [^3H]X-34; cited from earlier work.
[11] abbreviates: antibody (A) AT-100, ligand (B).

A word on the EC50: it is the concentration that produces a half-maximal response.

T5 sequence (P10636 1-441 isoform P10636-8 P301L): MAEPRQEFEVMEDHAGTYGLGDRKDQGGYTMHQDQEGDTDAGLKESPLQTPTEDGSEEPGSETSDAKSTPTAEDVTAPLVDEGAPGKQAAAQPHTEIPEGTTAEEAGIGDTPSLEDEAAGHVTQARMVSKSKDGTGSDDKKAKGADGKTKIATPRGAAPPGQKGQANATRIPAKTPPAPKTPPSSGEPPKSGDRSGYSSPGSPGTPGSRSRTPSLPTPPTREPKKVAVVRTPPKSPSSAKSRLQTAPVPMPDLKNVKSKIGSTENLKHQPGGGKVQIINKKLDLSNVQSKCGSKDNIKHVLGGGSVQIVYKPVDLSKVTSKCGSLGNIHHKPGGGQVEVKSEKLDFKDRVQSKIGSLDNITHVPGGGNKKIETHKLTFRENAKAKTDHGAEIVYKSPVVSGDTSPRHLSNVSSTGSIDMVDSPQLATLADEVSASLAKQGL
T3 sequence (P05067 672-713 limits assumed): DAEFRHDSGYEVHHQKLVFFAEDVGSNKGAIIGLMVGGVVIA
Chain of recombinant K18 tau fibrils (P10636 561-685 limits assumed): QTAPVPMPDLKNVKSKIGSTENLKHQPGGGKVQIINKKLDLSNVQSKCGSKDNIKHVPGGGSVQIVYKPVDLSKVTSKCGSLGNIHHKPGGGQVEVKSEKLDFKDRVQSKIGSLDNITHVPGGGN
T6 sequence (P10636 1-441 isoform P10636-8): as the sequence (P10636 1-441 isoform P10636-8 P301L) above, with L301P counted along it

Turning to `O=C(O)Cc1cc(-c2ccc(-c3cc(CC(=O)O)c(-c4ccc(C(=O)O)s4)s3)s2)sc1-c1ccc(C(=O)O)s1` [HS-84], in assay [1], the “M1, fraction of A overlapping B” value turned out to be 0.839; the “M2, fraction of B overlapping A” value is given as 0.838; the “Colocalization of ligand with pS129 signal” value was “Colocalization”.

For the compound `O=C(O)Cc1cc(-c2ccc(-c3cc(CC(=O)O)c(-c4ccc(C(=O)O)s4)s3)c3nsnc23)sc1-c1ccc(C(=O)O)s1` [HS-169], on recombinant αSyn fibrils [2], the Emission wavelength turned out to be 643 nm. On recombinant Aβ42 fibrils [3], the Emission wavelength is listed as 650 nm. Moreover, on recombinant αSyn fibrils [4], the “ka, rate constant of association” value is on record as 1.45E + 05 M^−1 s^−1 and the kon worked out at 288000 M⁻¹ s⁻¹. Besides, the Emission wavelength in assay [5] is 640 nm. Further, in assay [6], the “M1, fraction of A overlapping B” value is on record as 0.81; the “M2, fraction of B overlapping A” value came out at 0.866; the “Ligand detection of αSyn inclusions” value is “bound to pS129-positive αSyn inclusions”. For the same compound, in [7] (antibody (A) AT-8, ligand (B)), the “M1, fraction of A overlapping B” value is 0.164 and the “M2, fraction of B overlapping A” value was 0.279. In [1], the “M1, fraction of A overlapping B” value was found to be 0.673; the “M2, fraction of B overlapping A” value is recorded as 0.84; the “Colocalization of ligand with pS129 signal” value is reported as “Colocalization”.

Take `Cc1c(OCC(F)(F)F)ccnc1C[S+]([O-])c1nc2ccccc2[nH]1` (stereo not drawn) [Lan, lansoprazole]: the “ka, rate constant of association” value (in assay [8]; at recombinant Aβ42 fibrils [9]) was “lower than 10^3 M^−1 s^−1” in each case.

Turning to `CC[n+]1c(/C=C/C=C/c2ccc(N(C)C)cc2)sc2ccccc21` [PBB5], the Emission wavelength was 690 nm on recombinant αSyn fibrils [2], 695 nm on recombinant Aβ42 fibrils [3] and 688 nm in assay [5]. Also, the “M1, fraction of A overlapping B” value in assay [7] (antibody (A) AT-8, ligand (B)) is 0.39; in [7] (setting [11]), 0.024. Moreover, the “M2, fraction of B overlapping A” value is on record as 0.09 in assay [7] (antibody (A) AT-8, ligand (B)) and 0.018 in assay [7] (setting [11]). Besides, the “Ligand detection of tau inclusions” value in assay [7] (pR5 mice, cortex and hippocampus, costained with AT-8) was “confirmed the presence of PBB5 in tau inclusions”.

Regarding `O=C(O)Cc1cc(-c2ccc(-c3ccc(C(=O)O)s3)s2)sc1-c1ccc(-c2sc(-c3ccc(-c4ccc(C(=O)O)s4)s3)cc2CC(=O)O)s1` [h-FTAA, Hepta-formylthiophene acetic acid], at recombinant αSyn fibrils [4], the “ka, rate constant of association” value turned out to be 111000 M⁻¹ s⁻¹ and the kon was found to be 162000 M⁻¹ s⁻¹. For the same compound, in assay [6], the “M1, fraction of A overlapping B” value amounted to 0.404; the “M2, fraction of B overlapping A” value is 0.4; the “Ligand detection of αSyn inclusions” value is on record as “bound to pS129-positive αSyn inclusions”. In [7] (antibody (A) AT-8, ligand (B)), the “M1, fraction of A overlapping B” value is recorded as 0.215 and the “M2, fraction of B overlapping A” value came out at 0.07. Besides, in assay [7] (setting [11]), the “M1, fraction of A overlapping B” value was 0.459 and the “M2, fraction of B overlapping A” value was found to be 0.16. Besides, the EC50 on recombinant Aβ42 fibrils [10] is ~250 nM.

The values are drawn from PMC11527973, “Efficient characterization of multiple binding sites of small molecule imaging ligands on amyloid-beta, tau and alpha-synuclein” (European Journal of Nuclear Medicine and Molecular Imaging, 2024).
